One may read the Ki as the dissociation constant of the complex between target and ligand, obtained from inhibition or displacement. Lower therefore signals tighter binding.

Structures are written as SMILES. Numbered stars: 1 amine (or outer) side, 2 acyl side, 3 side chain; on linkers, the order of the positions; unused ones are H or OH. Square brackets hold non-standard residues; d marks the D form. Peptide text beside a SMILES is read from it. * marks the point of attachment. Isobutyloxycarbonyl = CC(C)COC(=O)*; Ala(cPr) = N[C@@H](CC1CC1)C(=O)O; X1 = CCCC(N[*:1])C(=O)C(=O)[*:2]; Ahp(2) = CCCCC[C@H](N)C(=O)O; Cba = N[C@@H](CC1CCC1)C(=O)O; Chg = N[C@H](C(=O)O)C1CCCCC1; Phg = N[C@H](C(=O)O)c1ccccc1; hLeu = CC(C)CC[C@H](N)C(=O)O

The experiment deals with NS3 (Hepatitis C virus, UniProt A3EZJ3). In words: Inhibitory activity against HCV NS3 serine protease 1. Also noted: species or system Hepacivirus hominis.
Chain of NS3 (A3EZJ3 whole entry): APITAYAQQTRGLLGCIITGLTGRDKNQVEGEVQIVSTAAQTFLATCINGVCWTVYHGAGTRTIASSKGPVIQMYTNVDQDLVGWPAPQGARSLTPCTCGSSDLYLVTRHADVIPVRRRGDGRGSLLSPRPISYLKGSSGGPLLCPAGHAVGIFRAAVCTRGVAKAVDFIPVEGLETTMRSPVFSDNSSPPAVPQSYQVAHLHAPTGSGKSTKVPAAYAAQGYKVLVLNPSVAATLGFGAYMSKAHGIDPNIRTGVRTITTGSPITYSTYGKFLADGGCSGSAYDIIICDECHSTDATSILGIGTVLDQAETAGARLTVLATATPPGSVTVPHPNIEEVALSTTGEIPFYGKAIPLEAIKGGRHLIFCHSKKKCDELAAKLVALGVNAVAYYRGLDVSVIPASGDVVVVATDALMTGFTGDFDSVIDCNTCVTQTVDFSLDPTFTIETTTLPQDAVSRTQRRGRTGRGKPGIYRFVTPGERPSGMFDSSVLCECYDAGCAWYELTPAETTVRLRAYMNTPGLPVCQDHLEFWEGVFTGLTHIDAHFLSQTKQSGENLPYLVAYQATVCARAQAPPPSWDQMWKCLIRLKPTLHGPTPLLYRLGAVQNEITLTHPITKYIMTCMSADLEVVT
In turn, `CCCC(NC(=O)[C@H](CCC(C)C)NC(=O)[C@@H](NC(=O)OCC(C)C)C1CCCCC1)C(=O)C(=O)NCC(=O)N[C@H](C(=O)O)c1ccccc1` (some centres undefined) (Isobutyloxycarbonyl-[Chg][hLeu][X1]G[Phg]-OH) registered a Ki of 310 nM.
The result for `CCCC(NC(=O)[C@H](CC1OCCO1)NC(=O)[C@@H](NC(=O)OCC(C)C)C1CCCCC1)C(=O)C(=O)NCC(=O)N[C@H](C(=O)O)c1ccccc1` (some centres undefined) reads 300 nM; that for `CCCC(NC(=O)[C@H](CC1SCCCS1)NC(=O)[C@@H](NC(=O)OCC(C)C)C1CCCCC1)C(=O)C(=O)NCC(=O)N[C@H](C(=O)O)c1ccccc1` (some centres undefined), 250 nM.
The result for `CCCCC[C@H](NC(=O)[C@@H](NC(=O)OCC(C)C)C1CCCCC1)C(=O)NC(CCC)C(=O)C(=O)NCC(=O)N[C@H](C(=O)O)c1ccccc1` (some centres undefined) (Isobutyloxycarbonyl-[Chg][Ahp(2)][X1]G[Phg]-OH) reads 300 nM; that for `CCCC(NC(=O)[C@H](CC1SCCS1)NC(=O)[C@@H](NC(=O)OCC(C)C)C1CCCCC1)C(=O)C(=O)NCC(=O)N[C@H](C(=O)O)c1ccccc1` (some centres undefined), 90 nM; that for `CCCC(NC(=O)[C@H](CC1OCCCO1)NC(=O)[C@@H](NC(=O)OCC(C)C)C1CCCCC1)C(=O)C(=O)NCC(=O)N[C@H](C(=O)O)c1ccccc1` (some centres undefined), 430 nM.
The figure for `CCCC(NC(=O)[C@H](CC1CC1)NC(=O)[C@@H](NC(=O)OCC(C)C)C1CCCCC1)C(=O)C(=O)NCC(=O)N[C@H](C(=O)O)c1ccccc1` (some centres undefined) (Isobutyloxycarbonyl-[Chg][Ala(cPr)][X1]G[Phg]-OH) is 50 nM; for `CCCC(NC(=O)[C@H](CC1CCC1)NC(=O)[C@@H](NC(=O)OCC(C)C)C1CCCCC1)C(=O)C(=O)NCC(=O)N[C@H](C(=O)O)c1ccccc1` (some centres undefined) (Isobutyloxycarbonyl-[Chg][Cba][X1]G[Phg]-OH) it is 140 nM.
`CCCC(NC(=O)[C@H](CC1SCc2ccccc2CS1)NC(=O)[C@@H](NC(=O)OCC(C)C)C1CCCCC1)C(=O)C(=O)NCC(=O)N[C@H](C(=O)O)c1ccccc1` (some centres undefined) had a Ki of 2300 nM.

These data come from ChEMBL document CHEMBL1142850, “Hepatitis C virus NS3-4A serine protease inhibitors: use of a P2-P1 cyclopropyl alanine combination for improved potency” (Bioorg Med Chem Lett, 2005).
